Experimental data taken from US12268210B2, “Performic acid on-site generator and formulator” (ECOLAB USA INC., priority 2015, dated 2025).

Columns and labels:
[1] = cited from earlier work; for half-life: shelf life stability, order of magnitude
SRB or APB populations = experiment: Micro efficacy of field-generated PFA at a salt water disposal well (serial dilution bug bottles); format: cell-based; settings: for log reduction in microbial population: compared to incoming water, serial dilution bug bottles selecting for SRB or APB
Protocol: The peroxyformic acid generator according to the embodiments depicted in the figures having multiple inlets to provide formic acid blend (formic acid, catalyst and corrosion inhibitor) as well as hydrogen peroxide was evaluated under field conditions at a scale-up volume. The generator was used at a salt water disposal well.
The performance of the chemistry generated in the field according to Example 5 was evaluated for micro efficacy. PFA dosed at 250 ppm (˜25 ppm active) indicates at least reduction in microbial numbers equivalent to 2-3 logs, as shown in FIG. 13. In the figures the GB refers to site of treatment (gun barrel) measurement, whereas SWD refers to the disposal water measurement for micro efficacy.
The percentage reduction of microbial numbers compared to incoming water was also evaluated. Microbial numbers were monitored using traditional serial dilution bug bottles that select for SRB or APB populations.

CC(=O)OO [peracetic acid, reference compound]
half-life [1]: weeks to months

performic acid [PFA]
reduction in microbial numbers (SRB or APB populations; PFA dosed at 250 ppm (~25 ppm active), GB (gun barrel) and SWD (disposal water) measurements, FIG. 13): 2-3 logs | log reduction in microbial population (SRB or APB populations; all results): 2-3 log | log reduction in microbial population (SRB or APB populations; in some case): 7 log | time to decompose into carbon dioxide and water ([1]; ambient temperature and pressure): within a few hours | half-life [1]: minutes to hours
